Results from paper PMC7226483, “Exploring the Synergy between PARP and CHK1 Inhibition in Matched BRCA2 Mutant and Corrected Cells” (Cancers, 2020).

Molecular target: T1, CHK1 (Cricetulus griseus, UniProt G3I7I8)
T1 construct: gene Chek1
T1 sequence (G3I7I8 1-476): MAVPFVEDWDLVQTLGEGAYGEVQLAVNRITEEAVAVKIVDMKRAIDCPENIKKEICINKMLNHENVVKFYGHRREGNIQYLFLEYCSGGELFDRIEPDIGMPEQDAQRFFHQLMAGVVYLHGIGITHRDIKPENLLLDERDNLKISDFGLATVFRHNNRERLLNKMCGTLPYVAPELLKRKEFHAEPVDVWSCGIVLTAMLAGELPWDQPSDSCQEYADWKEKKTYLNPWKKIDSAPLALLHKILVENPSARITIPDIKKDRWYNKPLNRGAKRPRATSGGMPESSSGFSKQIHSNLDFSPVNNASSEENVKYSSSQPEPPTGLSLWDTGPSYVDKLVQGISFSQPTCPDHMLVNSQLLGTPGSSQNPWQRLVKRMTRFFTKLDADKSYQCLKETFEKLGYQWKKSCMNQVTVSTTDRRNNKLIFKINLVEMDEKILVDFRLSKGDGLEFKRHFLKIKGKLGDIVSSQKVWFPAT
Assay: Western blot of CHK1 S296 autophosphorylation in rucaparib-treated V-C8 and V-C8.B2 cells
Type: cell-based
Conditions: read-out: % inhibition at 50 nM

`Cn1cc(-c2[nH]c3cc(NC(=O)[C@H](N)C4CCCCC4)cc4c3c2C=NNC4=O)cn1` [PF-477736] showed an inhibition at 0.05 µM of 91.4%.
